What was measured:
Type in all cases: functional, cell-based
HepG2 = assay: Cytotoxicity against Homo sapiens (human) HepG2 cells assessed as inhibition of cell growth after 3 days by MTT assay; settings: HepG2, 72 h
MOLT-3 = assay: Cytotoxicity against Homo sapiens (human) MOLT3 cells assessed as inhibition of cell growth after 3 days by crystal violet staining; settings: MOLT-3, 72 h
A549 = assay: Cytotoxicity against Homo sapiens (human) A549 cells assessed as inhibition of cell growth after 3 days by MTT assay; settings: A549, 72 h
[1] = Cytotoxicity against Homo sapiens (human) HuCCa1 cells assessed as inhibition of cell growth after 3 days by crystal violet staining; settings: HuCC-A1, 72 h

`O=[N+]([O-])c1ccc(NC(S)=NCCc2ccccc2)cc1` showed an IC50 (HepG2) of 25.4 µM, an IC50 (MOLT-3) of 12.5 µM and an IC50 (A549) of 80.3 µM. The IC50 [1] was 19.1 µM.

For `O=C(NCCc1ccccc1)Nc1ccc(Cl)cc1`, the IC50 (HepG2) was 37.6 µM, the IC50 (MOLT-3) was > 182 µM and the IC50 (A549) was > 182 µM. For the same compound, the IC50 [1] was > 182 µM.

In the case of `S=C(NCc1ccccn1)Nc1ccc(Cl)cc1`, the IC50 (HepG2) is reported as > 180 µM, the IC50 (MOLT-3) is reported as 119 µM and the IC50 (A549) is reported as > 180 µM. For the same compound, the IC50 [1] was > 180 µM.

For `S=C(NCCc1ccccc1)Nc1ccc(Cl)cc1`, the IC50 (HepG2) was 44.7 µM, the IC50 (MOLT-3) was 25.1 µM and the IC50 (A549) was 75.7 µM. It also gave an IC50 [1] of 84.2 µM.

For `S=C(NCCc1ccccn1)Nc1ccc(Cl)cc1`, the IC50 (HepG2) was > 171 µM, the IC50 (MOLT-3) was 120 µM and the IC50 (A549) was > 171 µM. The IC50 [1] was > 171 µM.

For `O=C(NCc1ccccn1)Nc1ccc(Cl)cc1`, the IC50 (HepG2) was > 191 µM, the IC50 (MOLT-3) was 186 µM and the IC50 (A549) was > 191 µM. For the same compound, the IC50 [1] was > 191 µM.

With `COc1ccc(CCNC(=S)Nc2ccc([N+](=O)[O-])cc2)cc1OC` the IC50 (HepG2) was 42.4 µM, the IC50 (MOLT-3) was 21.7 µM and the IC50 (A549) was 65 µM. The IC50 [1] was > 138 µM.

`COc1ccc(CCNC(=S)Nc2ccc(Cl)cc2)cc1OC` gave an IC50 (HepG2) of 60.8 µM, an IC50 (MOLT-3) of 38.9 µM and an IC50 (A549) of 129 µM. The IC50 [1] was 139 µM.

For `COc1ccc(CCNC(=O)Nc2ccc(Cl)cc2)cc1OC`, the IC50 (HepG2) was 52.8 µM, the IC50 (MOLT-3) was 50.7 µM and the IC50 (A549) was > 149 µM. For the same compound, the IC50 [1] was > 149 µM.

With `O=[N+]([O-])c1ccc(NC(=S)NCCc2ccccn2)cc1` the IC50 (HepG2) was 152 µM, the IC50 (MOLT-3) was 78.7 µM and the IC50 (A549) was > 165 µM. For the same compound, the IC50 [1] was > 165 µM.

For `O=C(NCCc1ccccn1)Nc1ccc(Cl)cc1`, the IC50 (HepG2) was 22.7 µM, the IC50 (MOLT-3) was 66.9 µM and the IC50 (A549) was > 181 µM. For the same compound, the IC50 [1] was > 181 µM.

In the case of `O=[N+]([O-])c1ccc(NC(=S)NCc2ccccn2)cc1`, the IC50 (HepG2) is reported as 34.7 µM, the IC50 (MOLT-3) is reported as 54.1 µM and the IC50 (A549) is reported as > 173 µM. The IC50 [1] was > 173 µM.

For `O=[N+]([O-])c1ccc(NC(=S)NCc2cccc(CNC(=S)Nc3ccc([N+](=O)[O-])cc3)c2)cc1`, the IC50 (HepG2) was 7.51 µM, the IC50 (MOLT-3) was 3.36 µM and the IC50 (A549) was 88.6 µM. For the same compound, the IC50 [1] was 34.2 µM.

In the case of `S=C(NCc1cccc(CNC(=S)Nc2ccc(Cl)cc2)c1)Nc1ccc(Cl)cc1`, the IC50 (HepG2) is reported as 7.63 µM, the IC50 (MOLT-3) is reported as 1.62 µM and the IC50 (A549) is reported as > 105 µM. It also gave an IC50 [1] of 52.6 µM.

`COc1cccc2c1C(=O)c1c(O)c3c(c(O)c1C2=O)C[C@@](O)(C(=O)CO)C[C@@H]3O[C@H]1C[C@H](N)[C@H](O)[C@H](C)O1` [DOXORUBICIN] showed an IC50 (HepG2) of 0.42 µM, an IC50 (A549) of 0.7 µM and an IC50 [1] of 0.64 µM.

Reference: ChEMBL document CHEMBL3046651, “Cytotoxicity and QSAR study of (thio)ureas derived from phenylalkylamines and pyridylalkylamines” (Med Chem Res, 2013)
